From patent publication US8999956B2, “N-[(het)arylalkyl)] pyrazole(thio)carboxamides and their heterosubstituted analogues” (Bayer Intellectual Property GmbH, priority 2010, dated 2015)
Like-named read-outs stand apart in the source and are kept apart here.

Tests used:
[1] = test system: Botrytis cinerea; experiment: In vivo preventive test on Botrytis cinerea (beans); details: Table L, 500 ppm of active ingredient, lesion size 2 days after inoculation
Procedure: Solvent: 24.5 parts by weight of acetone • 24.5 parts by weight of N,N-dimethylacetamide
Emulsifier: 1 part by weight of alkylaryl polyglycol ether
To produce a suitable preparation of active compound, 1 part by weight of active compound is mixed with the stated amounts of solvent and emulsifier, and the concentrate is diluted with water to the desired concentration.
To test for preventive activity, young plants are sprayed with the preparation of active compound. After the spray coating has dried on, 2 small pieces of agar covered with growth of Botrytis cinerea are placed on each leaf. The inoculated plants are placed in a darkened chamber at 20° C. and a relative atmospheric humidity of 100%.
2 days after the inoculation, the size of the lesions on the leaves is evaluated. 0% means an efficacy which corresponds to that of the untreated control, while an efficacy of 100% means that no disease is observed.

[2] = test system: Septoria tritici; experiment: In vivo preventive test on Septoria tritici (wheat); details: 500 ppm of active ingredient, evaluated 21 days after inoculation
Procedure: (§1) Solvent: 49 parts by weight of N,N-dimethylacetamide Emulsifier: 1 part by weight of alkylaryl polyglycol ether To produce a suitable preparation of active compound, 1 part by weight of active compound or active compound combination is mixed with the stated amounts of solvent and emulsifier, and the concentrate is diluted with water to the desired concentration. To test for preventive activity, young plants are sprayed with the preparation of active compound or active compound combination at the stated rate of application. After the spray coating has been dried, the plants are sprayed with a spore suspension of Septoria tritici.

[3] = test system: Alternaria solani; experiment: In vivo preventive test on Alternaria solani (tomato); details: 500 ppm of active ingredient, evaluated 7 days after inoculation
Summary of the method: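 Preventive set-up: Alternaria solani spores, as aqueous suspension, applied to young plants one day after spraying. Spray contained active compound formulated with N,N-dimethylformamide and emulsifier, water-diluted to the desired application rate.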

[4] = test system: Fusarium nivale (var. majus); experiment: In vivo preventive test on Fusarium nivale (wheat); details: 500 ppm of active ingredient, evaluated 5 days after inoculation
Procedure: Solvent: 49 parts by weight of N,N-dimethylacetamide Emulsifier: 1 part by weight of alkylaryl polyglycol ether To produce a suitable preparation of active compound, 1 part by weight of active compound or active compound combination is mixed with the stated amounts of solvent and emulsifier, and the concentrate is diluted with water to the desired concentration. To test for preventive activity, young plants are sprayed with the preparation of active compound or active compound combination at the stated rate of application. After the spray coating has been dried, the plants are slightly injured by using a sandblast and afterwards they are sprayed with a conidia suspension of Fusarium nivale (var. majus).

[5] = test system: Sphaerotheca fuliginea; experiment: In vivo preventive test on Sphaerotheca fuliginea (cucumber); details: 500 ppm of active ingredient, evaluated 7 days after inoculation
Procedure: Solvent: 49 parts by weight of N,N-dimethylformamide Emulsifier: 1 part by weight of Alkylarylpolyglycolether To produce a suitable preparation of active compound, 1 part by weight of active compound is mixed with the stated amounts of solvent and emulsifier, and the concentrate is diluted with water to the desired concentration. To test for preventive activity, young plants are sprayed with the preparation of active compound at the stated rate of application. One day after this treatment, the plants are inoculated with an aqueous spore suspension of Sphaerotheca fuliginea. Then the plants are placed in a greenhouse at approximately 23° C. and a relative atmospheric humidity of approximately 70%.

[6] = test system: Puccinia triticina; experiment: In vivo preventive test on Puccinia triticina (wheat); details: Table K, 500 ppm of active ingredient, evaluated 8 days after inoculation
[7] = test system: Blumeria graminis fsp. hordei; experiment: In vivo preventive test on Blumeria graminis (barley); details: 500 ppm of active ingredient, evaluated 7 days after inoculation
Procedure: Solvent: 49 parts by weight of N,N-dimethylacetamide Emulsifier: 1 part by weight of alkylaryl polyglycol ether To produce a suitable preparation of active compound, 1 part by weight of active compound or active compound combination is mixed with the stated amounts of solvent and emulsifier, and the concentrate is diluted with water to the desired concentration. To test for preventive activity, young plants are sprayed with the preparation of active compound or active compound combination at the stated rate of application. After the spray coating has been dried, the plants are dusted with spores of Blumeria graminis fsp. hordei.

[8] = test system: Aspergillus parasiticus; experiment: microbe, parasite or virus in culture; assay type: cell-based
[9] = test system: aflatoxines produced by Aspergillus parasiticus; experiment: microbe, parasite or virus in culture; assay type: cell-based
[10] = test system: Pyrenophora teres; experiment: In vivo preventive test on Pyrenophora teres (barley); details: 500 ppm of active ingredient, evaluated 7-9 days after inoculation
Summary of the method: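 Preventive test: young barley plants received a water-diluted spray of compound formulated with DMF solvent plus alkylaryl polyglycol ether emulsifier, at the stated rate. Inoculation with an aqueous spore suspension of Pyrenophora teres followed one day after spraying.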

[11] = log P by HPLC on reversed-phase column (EEC Directive 79/831 Annex V.A8); assay type: physicochemical
Procedure: In table 1, the log P values were determined in accordance with EEC Directive 79/831 Annex V.A8 by HPLC (High Performance Liquid Chromatography) on a reversed-phase column (C18), using the method described below: Temperature: 40° C.; […]

[12] = test system: Leptosphaeria nodorum; experiment: In vivo preventive test on Leptosphaeria nodorum (wheat); details: 500 ppm of active ingredient, evaluated 7-9 days after inoculation
Procedure: Solvent: 49 parts by weight of N,N-dimethylacetamide Emulsifier: 1 part by weight of alkylaryl polyglycol ether To produce a suitable preparation of active compound, 1 part by weight of active compound is mixed with the stated amounts of solvent and emulsifier, and the concentrate is diluted with water to the desired concentration. To test for preventive activity, young plants are sprayed with a preparation of active compound at the stated rate of application. One day after this treatment, the plants are inoculated with an aqueous spore suspension of Leptosphaeria nodorum.

[13] = test system: Uromyces appendiculatus; experiment: In vivo preventive test on Uromyces appendiculatus (beans); details: 100 ppm of active ingredient, evaluated 10 days after inoculation
Procedure: as §1, with “24.5 parts by weight of acetone • 24.5” for “49”, “compound” for “compound or active compound combination”, “application.” for “application. After the spray coating has been dried, the plants are sprayed with a spore suspension of Septoria tritici.”

[14] = test system: Venturia inaequalis; experiment: In vivo preventive test on Venturia inaequalis (apple scab); details: 100 ppm of active ingredient, evaluated 10 days after inoculation
Procedure: as §1, with “24.5 parts by weight of acetone • 24.5” for “49”, “compound” for “compound or active compound combination”, “application.” for “application. After the spray coating has been dried, the plants are sprayed with a spore suspension of Septoria tritici.”

Cn1nc(C(F)F)c(C(=O)NC2CCCC2CCC(C)(C)C)c1F (centres unmarked) [Example 319, 3-(difluoromethyl)-N-[2-(3,3-dimethylbutyl)cyclopentyl]-5-fluoro-1-methyl-1H-pyrazole-4-carboxamide]
Efficacy [1]: 73% | Efficacy [2]: 100% | Efficacy [3]: 100% | Efficacy [4]: 100% | Efficacy [5]: 100% | pest or weed control at 500 ppm ([6]; Puccinia triticina, 192 h, read-out: Efficacy): 80% | Efficacy [7]: 100% | inhibition at 50 µM ([8]; Aspergillus parasiticus, 168 h, read-out: % Inhibition of fungal growth at 50 μM): 89% | inhibition at 50 µM ([9]; Aspergillus parasiticus, 168 h, read-out: % Inhibition of Aflatoxin at 50 μM): 100% | Efficacy [10]: 100% | chromatographic logP ([11]; log P (isomer A)): 4.22 | chromatographic logP ([11]; log P (isomer B)): 4.28 | chromatographic logP ([11]; logP): 4.22

CC(CC1CCCCC1)N(C(=O)c1c(C(F)F)nn(C)c1F)C1CC1 (centres unmarked) [Example 370]
Efficacy [1]: 100% | Efficacy [3]: 100% | Efficacy [5]: 100% | Efficacy [6]: 90% | Efficacy [12]: 90% | Efficacy [10]: 100% | logP [11]: 4.36

Cn1nc(C(F)F)c(C(=O)N(C2CC2)C2CCCCC2C2CCCCC2)c1F (centres unmarked) [Example 372]
Efficacy [1]: 91% | Efficacy [3]: 95% | Efficacy [5]: 100% | Efficacy [6]: 100% | Efficacy [12]: 94% | Efficacy [10]: 100% | logP [11]: 5.28

Cn1nc(C(F)F)c(C(=O)NCC2CCCC(C(F)(F)F)C2)c1Cl (mixture of isomers) [Example 378]
Efficacy [1]: 96% | Efficacy [13]: 100% | Efficacy [3]: 100% | Efficacy [10]: 100% | Efficacy [14]: 100%

CC(C)CC(C)C1CCCC1NC(=O)c1c(C(F)F)nn(C)c1Cl (single isomer, unassigned) [Example 314]
Efficacy [13]: 85% | Efficacy [3]: 95% | Efficacy [5]: 90% | Efficacy [12]: 80% | Efficacy [10]: 100% | Efficacy [14]: 98% | logP [11]: 4.47 isomer C

CC(C)CC(C)C1CCCC1NC(=O)c1c(C(F)F)nn(C)c1Cl (single isomer, unassigned) [Example 313]
Efficacy [13]: 88% | Efficacy [3]: 80% | % Inhibition of fungal growth at 50 μM ([8]; 50 µM): 82% | % Inhibition of Aflatoxin at 50 μM ([9]; 50 µM): 99% | Efficacy [10]: 100% | logP [11]: 4.46 isomer B

CC(N(C(=O)c1c(C(F)F)nn(C)c1F)C1CC1)C(C)(C)Cc1ccc(Cl)cc1Cl (centres unmarked) [Example 181]
Efficacy [13]: 78% | Efficacy [2]: 100% | Efficacy [3]: 100% | Efficacy [5]: 100% | Efficacy [12]: 95% | Efficacy [7]: 100% | Efficacy [10]: 100% | Efficacy [14]: 100% | logP [11]: 5.14

CC(C)CC(C)C1CCCC1NC(=O)c1c(C(F)F)nn(C)c1Cl (single isomer, unassigned) [Example 312]
Efficacy [13]: 100% | Efficacy [3]: 95% | Efficacy [5]: 90% | Efficacy [6]: 100% | Efficacy [12]: 95% | % Inhibition of fungal growth at 50 μM ([8]; 50 µM): 99% | % Inhibition of Aflatoxin at 50 μM ([9]; 50 µM): 100% | Efficacy [10]: 100% | Efficacy [14]: 99% | logP [11]: 4.40 isomer A

CCCC1CCCCC1NC(=O)c1c(C(F)F)nn(C)c1F (single isomer, unassigned) [Example 343]
Efficacy [2]: 100% | Efficacy [3]: 95% | Efficacy [4]: 100% | Efficacy [6]: 70% | Efficacy [7]: 94% | % Inhibition of fungal growth at 50 μM ([8]; 50 µM): 87% | % Inhibition of Aflatoxin at 50 μM [9]: 100% | Efficacy [10]: 100% | Efficacy [14]: 97% | logP [11]: 3.42 isomer A

CCCCCCC1CCCCC1NC(=O)c1c(C(F)F)nn(C)c1F (centres unmarked) [Example 326]
Efficacy [2]: 78% | Efficacy [4]: 92% | Efficacy [6]: 100% | logP [11]: 5.07

CC(C)CC(C)C1CCCC1NC(=O)c1c(C(F)F)nn(C)c1F (single isomer, unassigned) [Example 316]
Efficacy [13]: 100% | Efficacy [3]: 90% | Efficacy [5]: 98% | Efficacy [6]: 100% | Efficacy [12]: 80% | % Inhibition of fungal growth at 50 μM ([8]; 50 µM): 100% | % Inhibition of Aflatoxin at 50 μM [9]: 100% | Efficacy [10]: 100% | Efficacy [14]: 100% | logP [11]: 4.19 isomer A

CC(C)CC(C)C1CCCCC1NC(=O)c1c(C(F)F)nn(C)c1F (single isomer, unassigned) [Example 337]
Efficacy [1]: 93% | Efficacy [13]: 86% | Efficacy [2]: 78% | Efficacy [3]: 100% | Efficacy [5]: 100% | Efficacy [6]: 70% | Efficacy [10]: 100% | Efficacy [14]: 74% | logP [11]: 4.47 isomer A

CC(C)CCC1CCCC1NC(=O)c1c(C(F)F)nn(C)c1F (centres unmarked) [Example 310]
Efficacy [13]: 100% | Efficacy [3]: 100% | Efficacy [5]: 100% | % Inhibition of fungal growth at 50 μM [8]: 96% | % Inhibition of Aflatoxin at 50 μM [9]: 100% | Efficacy [10]: 100% | Efficacy [14]: 100% | logP [11]: 3.98

Cn1nc(C(F)F)c(C(=O)NC2CCCC2CCC(C)(C)C)c1Cl (centres unmarked) [Example 320]
Efficacy [13]: 99% | Efficacy [3]: 100% | Efficacy [5]: 100% | Efficacy [6]: 70% | % Inhibition of fungal growth at 50 μM [8]: 82% | % Inhibition of Aflatoxin at 50 μM [9]: 99% | Efficacy [10]: 95% | Efficacy [14]: 100% | logP [11]: 4.49

CCCCC1CCCC1NC(=O)c1c(C(F)F)nn(C)c1Cl (centres unmarked) [Example 307]
Efficacy [13]: 100% | Efficacy [3]: 100% | Efficacy [5]: 83% | Efficacy [6]: 80% | % Inhibition of fungal growth at 50 μM [8]: 92% | % Inhibition of Aflatoxin at 50 μM [9]: 100% | Efficacy [10]: 100% | Efficacy [14]: 100% | logP [11]: 3.83

Cn1nc(C(F)F)c(C(=O)N(C2CC2)C2CCCCC2C2=CCCCC2)c1F (centres unmarked) [Example 376]
Efficacy [13]: 94% | logP [11]: 4.88
